From patent US20200338056A1, “INDUCTION OF SENESCENCE USING PROTON PUMP INHIBITORS” (THE METHODIST HOSPITAL SYSTEM, priority 2016, published 2020)

Test system: Human microvascular endothelial cells (ECs)
Test: Senescence-associated β-galactosidase (SA-β-gal) staining with SYTO cell count
Format: cell-based
Procedure: Cell culture. Human microvascular endothelial cells (ECs) purchased from Lonza (cat # CC-2543, Basel, Switzerland) were cultured continuously for three passages from passage (P) 4 to P6 in the presence of clinically relevant doses of esomeprazole or vehicle (DMSO) (Shin J M, Kim N. Pharmacokinetics and pharmacodynamics of the proton pump inhibitors. Journal of neurogastroenterology and motility. 2013; 19:25-35). All in vitro experiments were performed at P6 upon confluency. ECs were cultured and maintained in EBM-2 Basal Medium (cat # CC-3156, Lonza, Basel, Switzerland) supplemented with EGM-2 MV SingleQuots™ Kit—growth factors, cytokines, and antibiotics (cat # CC-4147, Lonza, Basel, Switzerland).
Senescence-associated β-galactosidase (SA-β-gal) staining. Senescence of ECs was measured using the Cellular Senescence Assay kit from Cell Biolabs, Inc. (Cat: CBA-230, San Diego, Calif.). The protocol was performed according to the manufacturer's guide. Briefly, Ecs treated continuously for 3 passages with esomeprazole or vehicle were plated in a 6 well plate. Upon confluency, cells were initially fixed and later incubated with SA-β-gal working solution for 16 hours in a non-humidified CO2 free incubator at 37° C. After incubation the cells were counter stained with SYTO® GREEN fluorescent nucleic acid stain (Life Technologies). Several random images per well were taken using light and fluorescent microscope. The SA-β-gal positive cells were counted manually and total cell number per field was quantified using NIH ImageJ software.

[1] = chronic treatment, at P6, vs vehicle

## Cc1nc2c(OCc3ccccc3)cccn2c1CC#N [SCH-28080]
Chronic exposure of human ECs
  endothelial senescence / aging (overall finding): accelerated
[1]
  SA-β-gal-positive cells: increased
  total cell count per microscopic field (SYTO-green staining): decrease
